Results reported in PMC12514245, “Impaired migration and lung invasion of human melanoma by a novel small molecule targeting the transmembrane domain of death receptor p75^NTR” (EMBO Molecular Medicine, 2025).
Values joined by “and” are separate entries in the source; they are usually repeats but may differ in a detail not shown here. Identical values can stand only once. One block for each molecule: values may come before it.

Legend:
A875 NT cells [1] = test: Wound healing cell motility assay, A875 NT; assay type: cell-based, human; settings: for Wound area (Fold), Mean / Wound area (Fold), individual replicates: 10uM
Protocol: For wound healing assay, cells were grown until confluency and subjected to a wound across the cell mono-layer. Cells were then incubated with serum-free media either with DMSO or a small molecule (with or without 5 µM Q_VD_poH) and imaged at specific time-points. Cell migration is reflected as fold change in wound area over time.

AS19 E. coli = test: Bacterial toxicity (OD630) in the AraTM assay; assay type: cell-based; settings: compared with Div17E5
p75^NTR TMD = biological target: T1, p75^NTR TMD (Homo sapiens, UniProt P08138); test: AraTM assay, wild-type p75NTR TMD (GFP/OD630); assay type: cell-based; settings: structure-activity comparison
T1 sequence (P08138 250-275 limits assumed): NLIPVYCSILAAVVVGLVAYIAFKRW

[2] = system: neurons and melanoma cells; parameters: method as in Goh et al, 2018; settings: dependent on p75NTR and JNK activity; ref Goh et al, 2018; cited from earlier work
melanoma tumor = system: melanoma tumor; parameters: method as in Goh et al, 2018; settings: ref Goh et al, 2018; cited from earlier work
A875 shp75 cells [3] = test: Filopodia per cell (phalloidin staining), A875 shp75; assay type: cell-based, human; settings: for filopodia per cell (well mean): A875 shp75 cells, wells 1-4
Protocol: (§1) For assessment of actin filaments, A875 cells were plated on glass coverslips in 24-well plate at a confluency of 3 × 10^4 cells/well. One day after plating, the cells were treated with 1 μM or 5 μM Np75-4A22 and NGF (100 ng/ml) or PBS for 24 h. Cells were fixed in 4% paraformaldehyde, permeabilized in 0.1% Triton-X-100, stained with Phalloidin-iFluor 488 (Abcam) at 1:2000 dilution and DAPI for 1 h. Coverslips were mounted and visualized in a laser confocal microscope.

WM115 cells = test: Boyden chamber chemotaxis assay, WM115; assay type: cell-based, human; settings: 100 ng/ml NGF
Protocol: For Boyden chamber assay, Corning® BioCoat™ Matrigel® Invasion Chambers 8.0 µm PET Membrane were used (cat. no. 354480). A875 NT or WM115 cells were serum-starved for 16 h and then seeded at 60,000 cells per well in serum-free media under different conditions, including DMSO (vehicle) or small molecules Div17E5 or Np75-4A22 at different concentrations to the top chamber of the Matrigel-coated trans-well chamber. The pan-caspase inhibitor Q_VD_poH (at 5 µM) was also introduced in the top chamber in some experiments. Two different chemoattractants, NGF (at 50 ng/ml or 100 ng/ml as indicated) or 10% FBS were added to the bottom chamber. Assays were carried out for 8 h after which filters were fixed in 4% PFA and stained with DAPI. Cells that had remained on the top of the filter were gently scrapped away with a cotton tip. The filter lower side was imaged on an inverted fluorescence microscope and counted using ImageJ software (NIH).

A875 NT cells [4] = test: Filopodia per cell (phalloidin staining), A875 NT; assay type: cell-based, human
Protocol: as §1

A875 shp75 cells [5] = test: Boyden chamber chemotaxis assay, A875 shp75; assay type: cell-based, human; settings: NGF as chemoattractant
[6] = biological target: T2, fascin/p75^NTR interaction (Homo sapiens, UniProt P08138); test: Co-immunoprecipitation of fascin with p75NTR in A875 cells; assay type: cell-based; settings: NGF, experiments 1-3
T2 construct: endogenous in cells; host or cells: A875-NT (and A875 sh-p75NTR knock-down control)
T2 sequence (P08138 29-427): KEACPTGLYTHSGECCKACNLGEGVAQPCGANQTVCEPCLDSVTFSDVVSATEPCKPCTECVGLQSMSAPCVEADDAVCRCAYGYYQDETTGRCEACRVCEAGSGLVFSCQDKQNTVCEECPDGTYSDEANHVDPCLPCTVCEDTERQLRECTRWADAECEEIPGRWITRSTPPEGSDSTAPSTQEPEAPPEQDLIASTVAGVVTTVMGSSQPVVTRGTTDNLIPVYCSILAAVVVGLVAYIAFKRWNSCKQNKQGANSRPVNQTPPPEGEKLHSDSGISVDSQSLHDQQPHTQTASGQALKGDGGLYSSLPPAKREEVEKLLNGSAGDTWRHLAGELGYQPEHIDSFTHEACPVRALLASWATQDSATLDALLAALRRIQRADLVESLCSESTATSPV
Protocol: For co-immunoprecipitation analysis of p75^NTR/fascin interactions, A875 sh-p75^NTR and A875-NT cells were plated in a 10 cm tissue culture dish at a confluency of 3 × 10^6 cells/dish in normal growth media. Twenty-four hours after plating, the cells were treated with 1 μM 4A22 and NGF (100 ng/ml) for 12 h prior to harvest and lysis in lysis buffer (50 mM Tris/HCl pH 7.5, 1 mM EDTA, 270 mM Sucrose, 1% (v/v) Triton X-100, 0.1% (v/v) 2-mercaptoethanol and 60 mM n-Octyl-β-D glucopyranoside) containing protease inhibitor cocktail. The cellular extracts were then centrifuged at 4 °C top speed on a benchtop centrifuge for 1 min and the supernatant was collected. For immunoprecipitation, A875 cell extracts were incubated for 16 h at 4 °C on a rotating wheel with 0.8 μg of anti-p75^NTR antibody (ANT-007, Alomone) and then incubated with Sepharose protein-G beads (GE Healthcare). The beads were collected by brief centrifugation (2 min, 2500 rpm, 4 °C), washed three times with 1 ml of Wash Buffer (with composition same as the lysis buffer). After the last wash, pelleted beads were aspirated off the wash buffer followed by addition of Laemmli sample buffer and analysis by SDS–PAGE followed by Western Blot using anti-fascin antibody (MA5-11483, Invitrogen).

[7] = system: fascin in Triton-insoluble fraction of A875 NT cells; test: Detergent-insolubility assay of fascin, A875 NT; assay type: cell-based, human; settings: NGF; insoluble/total fascin, n1-n3
Protocol: A single cell suspension was obtained by trypsinization followed by centrifugation and detergent extraction with lysis buffer (with 0.5% Triton X-100). Then, immediately centrifuged at 8700 g for 3 min. The resulting pellets (containing the Triton X-100-resistant proteins) were suspended in lysis buffer without Triton X-100. In parallel, cells were centrifuged and then directly suspended in lysis buffer. The Triton X-100- resistant proteins and total cell lysates were analyzed by SDS–PAGE and Western blotting with anti-fascin antibody.

Molecule: COc1ccc(-c2cncc(Nc3ccc([N+](=O)[O-])cc3)n2)cc1 [MS_18]
wound healing assay, comparison of Div17E5, MS_18 and MS_63 (A875 NT cells [1]; 10 µM): lower potency
Wound area (Fold), Mean (A875 NT cells [1]; 0 hours): 1 Fold
Wound area (Fold), individual replicates (A875 NT cells [1]; 0 hours): 1.000 Fold
Wound area (Fold), Mean (A875 NT cells [1]; 3 hours): 0.941 Fold
Wound area (Fold), individual replicates (A875 NT cells [1]; 3 hours): 0.922 Fold and 0.959 Fold
Wound area (Fold), Mean (A875 NT cells [1]; 6 hours): 0.91 Fold
Wound area (Fold), individual replicates (A875 NT cells [1]; 6 hours): 0.89 Fold and 0.929 Fold
Wound area (Fold), Mean (A875 NT cells [1]; 9 hours): 0.867 Fold
Wound area (Fold), individual replicates (A875 NT cells [1]; 9 hours): 0.834 Fold and 0.901 Fold
Wound area (Fold), Mean (A875 NT cells [1]; 12 hours): 0.851 Fold
Wound area (Fold), individual replicates (A875 NT cells [1]; 12 hours): 0.803 Fold and 0.899 Fold
Wound area (Fold), Mean (A875 NT cells [1]; 15 hours): 0.791 Fold
Wound area (Fold), individual replicates (A875 NT cells [1]; 15 hours): 0.728 Fold and 0.855 Fold
Wound area (Fold), Mean (A875 NT cells [1]; 18 hours): 0.817 Fold
Wound area (Fold), individual replicates (A875 NT cells [1]; 18 hours): 0.79 Fold and 0.845 Fold
Wound area (Fold), Mean (A875 NT cells [1]; 21 hours): 0.775 Fold
Wound area (Fold), individual replicates (A875 NT cells [1]; 21 hours): 0.722 Fold and 0.827 Fold
Wound area (Fold), Mean (A875 NT cells [1]; 24 hours): 0.737 Fold
Wound area (Fold), individual replicates (A875 NT cells [1]; 24 hours): 0.692 Fold and 0.783 Fold
bacterial toxicity, as assessed by OD630 (AS19 E. coli): somewhat lower bacterial toxicity
activity in the AraTM assay (p75^NTR TMD): MS_18 more potent than Np75-3A01, -3A02

Molecule: O=C(/C=C/c1cccnc1)c1ccccc1O [NSC49652]
apoptotic cell death [2]: triggered apoptotic cell death
melanoma tumor growth (melanoma tumor): inhibited melanoma tumor growth

FASCIN/P75 [6]: 0.1943 and 0.2161 and 0.2851
FASCIN/P75 Fold change ([6]; relative to UT): 1.97 and 2.116 and 1.36
Molecule: NGF: nerve growth factor, neurotrophin ligand of p75NTR, used as chemoattractant
filopodia per cell (mean of 3 experiments) (A875 shp75 cells [3]; A875 shp75, 100ng/ml NGF): 33.6544
filopodia per cell (mean of one experiment) (A875 shp75 cells [3]; A875 shp75, 100ng/ml NGF, EXP1-EXP3): 32.2411 and 36.1597 and 32.5625
filopodia per cell (well mean) (A875 shp75 cells [3]; EXP1, 100 ng/ml NGF): 25.2143 and 35.5 and 37.1667 and 31.0833
filopodia per cell (well mean) (A875 shp75 cells [3]; EXP2, 100 ng/ml NGF): 37 and 30.3889 and 32.6667 and 44.5833
values normalized to vehicle, mean (Figure 6E) (WM115 cells; mean of EXP1-3): 1.5693
values normalized to vehicle (Figure 6E) (WM115 cells; single experiments EXP1-3): 1.456 and 1.588 and 1.664
Filopodia per cell, mean of experiment (A875 NT cells [4]; 100 ng/ml NGF alone, A875 NT, EXP1-EXP3): 50.0863 and 44.7441 and 46.2718
Filopodia per cell, mean of three experiments (A875 NT cells [4]; 100 ng/ml NGF alone, A875 NT, mean of EXP1-3): 47.0341
Filopodia per cell, mean of well (A875 NT cells [4]; 100 ng/ml NGF alone, A875 NT, well mean): 36.2857 and 52.7857 and 51.5714 and 47.2222 and 38.6667 and 55.1429 and 44.0556
Filopodia per cell, mean of the well (A875 NT cells [4]; 100 ng/ml NGF, EXP1 NT, well mean): 59.8571 and 51.381 and 46.8571 and 42.25
Fold change (invading cells), n1-n4 (A875 shp75 cells [5]): 0.89 Fold and 1.06 Fold and 1.42 Fold and 1.05 Fold
Fold change (invading cells), Mean (A875 shp75 cells [5]; N=4): 1.110 Fold
Fold change (compared to untreated cells) [7]: 3.421 and 2.292 and 2.425
